Reference: patent US12595253B2, “Benzamides of pyrazolylamino-pyrimidinyl derivatives, and compositions and methods thereof” (LYNK PHARMACEUTICALS CO. LTD., priority 2019, dated 2026)

Molecular target: T1, JAK1 (Homo sapiens, UniProt P23458)
T1 construct: purchased Carna Biosciences
Test: JAK1 microfluidic kinase assay (Caliper EZ Reader II, FAM labeled peptide substrate)
Assay type: biochemical
Settings: IC50 JAK1 (5 nM) (1 m MATP), JAK1 5 nM, 1 mM ATP
Protocol: (§1) Compounds were tested against JAK1, JAK2, JAK2V617F and TYK2. Assay Formats: JAK activity was determined in the reaction buffer 50 mM HEPES, 0.01% Brij35, 10 mM MgCl2, 2 mM DTT by a microfluidic assay. The phosphorylation of a FAM labeled peptide substrate was monitored in the Caliper EZ Reader II (Perkin Elmer). The assay condition for each batch of enzyme (Carna Biosciences) was optimized to obtain 10% conversion rate of peptide substrate. The test compounds were dissolved in DMSO to a stock concentration of 10 mM. 3-fold serially diluted compounds with top concentration of 5 μM were pre-incubated with JAK1, JAK2, JAK2V617F or TYK2 at indicated concentrations for 10 min at ambient temperature. The final DMSO concentration of assay mixture was 1%. […] The reaction was stopped by adding 50 mM EDTA. […] The percent inhibition was calculated by the following formula. % Inhibition=(Conversionmax−Conversionsample)/(Conversionmax−Conversionmin)*100 • Conversionmax means the conversion rate in the positive well without addition of compound • Conversionmin means the conversion rate in the well without addition of enzyme • Conversionsample means the conversion rate of test compounds The dose-response (percent inhibition) curve was plotted and IC50 values were determined by GraphPad software.

T1 sequence (P23458 whole entry): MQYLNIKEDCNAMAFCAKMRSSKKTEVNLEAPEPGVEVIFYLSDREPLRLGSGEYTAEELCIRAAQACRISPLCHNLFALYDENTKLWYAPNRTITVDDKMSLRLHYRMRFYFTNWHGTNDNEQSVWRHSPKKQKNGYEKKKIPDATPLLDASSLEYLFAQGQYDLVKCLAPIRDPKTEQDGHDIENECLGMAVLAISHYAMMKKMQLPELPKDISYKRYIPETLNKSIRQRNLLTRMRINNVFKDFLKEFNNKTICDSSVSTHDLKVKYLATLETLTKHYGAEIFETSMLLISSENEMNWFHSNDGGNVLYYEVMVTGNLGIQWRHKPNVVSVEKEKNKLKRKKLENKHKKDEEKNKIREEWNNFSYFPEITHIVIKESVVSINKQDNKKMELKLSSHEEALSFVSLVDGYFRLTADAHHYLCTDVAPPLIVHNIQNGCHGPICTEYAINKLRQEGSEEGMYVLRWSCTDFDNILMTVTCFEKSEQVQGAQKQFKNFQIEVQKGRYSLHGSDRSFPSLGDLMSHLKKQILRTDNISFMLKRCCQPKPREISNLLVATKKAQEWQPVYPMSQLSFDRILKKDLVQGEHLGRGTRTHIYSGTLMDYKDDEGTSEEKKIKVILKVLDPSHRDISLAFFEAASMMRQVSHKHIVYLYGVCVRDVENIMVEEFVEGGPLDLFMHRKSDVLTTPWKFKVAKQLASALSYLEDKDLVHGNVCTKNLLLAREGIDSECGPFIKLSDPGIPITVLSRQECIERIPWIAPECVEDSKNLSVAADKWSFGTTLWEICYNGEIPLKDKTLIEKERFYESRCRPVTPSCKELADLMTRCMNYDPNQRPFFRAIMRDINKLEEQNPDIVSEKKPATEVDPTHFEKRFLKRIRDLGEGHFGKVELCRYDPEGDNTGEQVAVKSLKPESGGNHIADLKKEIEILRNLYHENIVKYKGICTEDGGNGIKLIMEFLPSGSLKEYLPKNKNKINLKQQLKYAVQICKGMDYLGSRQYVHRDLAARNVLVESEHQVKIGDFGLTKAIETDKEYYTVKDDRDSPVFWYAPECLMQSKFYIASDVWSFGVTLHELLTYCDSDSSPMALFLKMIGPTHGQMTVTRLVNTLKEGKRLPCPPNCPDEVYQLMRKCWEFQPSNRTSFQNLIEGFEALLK

Row | IC50 | Structure (SMILES)
1 | 0.0115 µM | CC1(C)CC(n2cc(Nc3ncc(Cl)c(-c4ccc(C(=O)NCC#N)cc4)n3)cn2)CC(C)(C)O1 [Example 181, 4-(5-Chloro-2-((1-(2,2,6,6-tetramethyltetrahydro-2H-pyran-4-yl)-1H-pyrazol-4-yl)amino)pyrimidin-4-yl)-N-(cyanomethyl)benzamide]
2 | 0.291 µM | N#CCNC(=O)c1ccc(-c2ccnc(Nc3cnn(C4CC4)c3)n2)cc1F [Example 139, N-(Cyanomethyl)-4-(2-((1-cyclopropyl-1H-pyrazol-4-yl)amino)pyrimidin-4-yl)-2-fluorobenzamide]
3 | 0.0908 µM | N#CCNC(=O)c1ccc(-c2nc(Nc3cnn(CC(N)=O)c3)ncc2Cl)cc1 [Example 42, 4-(2-((1-(2-amino-2-oxoethyl)-1H-pyrazol-4-yl)amino)-5-chloropyrimidin-4-yl)-N-(cyanomethyl)benzamide]

Molecular target: T2, JAK2 (Homo sapiens, UniProt O60674)
T2 construct: purchased Carna Biosciences
T2 sequence (O60674 whole entry): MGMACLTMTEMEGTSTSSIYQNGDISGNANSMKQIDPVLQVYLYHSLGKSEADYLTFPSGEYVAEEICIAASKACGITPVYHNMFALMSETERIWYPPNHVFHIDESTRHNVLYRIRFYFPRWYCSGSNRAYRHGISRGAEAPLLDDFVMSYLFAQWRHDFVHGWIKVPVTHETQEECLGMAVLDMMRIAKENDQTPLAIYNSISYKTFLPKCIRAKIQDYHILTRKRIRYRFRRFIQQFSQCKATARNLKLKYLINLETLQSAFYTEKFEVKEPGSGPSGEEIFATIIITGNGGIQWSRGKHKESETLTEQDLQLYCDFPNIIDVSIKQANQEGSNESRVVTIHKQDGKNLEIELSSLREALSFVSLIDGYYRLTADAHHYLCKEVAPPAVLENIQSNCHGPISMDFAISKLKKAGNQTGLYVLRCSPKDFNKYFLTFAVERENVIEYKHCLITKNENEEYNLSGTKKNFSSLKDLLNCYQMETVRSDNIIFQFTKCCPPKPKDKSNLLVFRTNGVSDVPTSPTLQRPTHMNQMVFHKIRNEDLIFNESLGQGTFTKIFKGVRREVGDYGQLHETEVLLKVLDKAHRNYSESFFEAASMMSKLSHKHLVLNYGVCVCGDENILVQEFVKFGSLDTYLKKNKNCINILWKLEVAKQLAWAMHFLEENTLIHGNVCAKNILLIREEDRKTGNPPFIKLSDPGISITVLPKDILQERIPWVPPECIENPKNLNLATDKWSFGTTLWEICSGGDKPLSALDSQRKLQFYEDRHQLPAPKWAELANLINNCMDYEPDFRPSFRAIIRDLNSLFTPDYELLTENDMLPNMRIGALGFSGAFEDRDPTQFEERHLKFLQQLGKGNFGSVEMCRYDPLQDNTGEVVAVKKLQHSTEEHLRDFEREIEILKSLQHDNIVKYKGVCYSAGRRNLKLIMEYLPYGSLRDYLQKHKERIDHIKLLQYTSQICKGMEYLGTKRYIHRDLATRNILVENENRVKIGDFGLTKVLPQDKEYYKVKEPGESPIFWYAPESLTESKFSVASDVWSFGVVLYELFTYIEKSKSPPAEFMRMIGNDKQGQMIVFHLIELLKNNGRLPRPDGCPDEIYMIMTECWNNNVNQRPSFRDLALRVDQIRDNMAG
Test: JAK2 microfluidic kinase assay (Caliper EZ Reader II, FAM labeled peptide substrate)
Assay type: biochemical
Settings: IC50 JAK2 ([…]) (1 mM ATP), 1 mM ATP
Protocol: as §1

Row | IC50 | Structure (SMILES)
4 | < 0.00025 µM | CC1(C)CC(n2cc(Nc3ncc(Cl)c(-c4ccc(C(=O)NCC#N)cc4)n3)cn2)CC(C)(C)O1 [Example 181, 4-(5-Chloro-2-((1-(2,2,6,6-tetramethyltetrahydro-2H-pyran-4-yl)-1H-pyrazol-4-yl)amino)pyrimidin-4-yl)-N-(cyanomethyl)benzamide]
5 | 0.219 µM | N#CCNC(=O)c1ccc(-c2ccnc(Nc3cnn(C4CC4)c3)n2)cc1F [Example 139, N-(Cyanomethyl)-4-(2-((1-cyclopropyl-1H-pyrazol-4-yl)amino)pyrimidin-4-yl)-2-fluorobenzamide]
6 | 0.457 µM | N#CCNC(=O)c1ccc(-c2nc(Nc3cnn(C4CC4)c3)ncc2C(F)F)cc1F [Example 109, N-(cyanomethyl)-4-(2-((1-cyclopropyl-1H-pyrazol-4-yl)amino)-5-(difluoromethyl)pyrimidin-4-yl)-2-fluorobenzamide]

Same assay, conditions: IC50 JAK2 ([…]) (Km ATP), Km ATP

Row | Structure (SMILES) | IC50
7 | N#CCNC(=O)c1ccc(-c2ccnc(Nc3cnn(C4CC4)c3)n2)cc1F [Example 139, N-(Cyanomethyl)-4-(2-((1-cyclopropyl-1H-pyrazol-4-yl)amino)pyrimidin-4-yl)-2-fluorobenzamide] | 0.0053 µM
8 | Cc1cnc(Nc2cnn(CC(F)(F)F)c2)nc1-c1ccc(C(=O)N2CC(C#N)C2)cc1 [Example 5, 1-(4-(5-Methyl-2-((1-(2,2,2-trifluoroethyl)-1H-pyrazol-4-yl)amino)pyrimidin-4-yl)benzoyl)azetidine-3-carbonitrile] | 0.0166 µM
9 | COc1cc(-c2nc(Nc3cnn(C)c3)ncc2C)ccc1C(=O)NCC#N [Example 33, N-(cyanomethyl)-2-methoxy-4-(5-methyl-2-((1-methyl-1H-pyrazol-4-yl)amino)pyrimidin-4-yl)benzamide] | 0.041 µM
10 | Cc1cnc(Nc2cnn(C)c2)nc1-c1ccc(C(=O)NC2CC(O)C2)cc1 (centres unmarked) [Example 9, N-(3-Hydroxycyclobutyl)-4-(5-methyl-2-((1-methyl-1H-pyrazol-4-yl)amino)pyrimidin-4-yl)benzamide] | 0.0172 µM
11 | Cc1cnc(Nc2cnn(C)c2)nc1-c1ccc(C(=O)NCC#N)c(F)c1 [Example 100, N-(Cyanomethyl)-2-fluoro-4-(5-methyl-2-((1-methyl-1H-pyrazol-4-yl)amino)pyrimidin-4-yl)benzamide] | 0.00434 µM
12 | Cc1cnc(Nc2cnn(C)c2)nc1-c1ccc(C(=O)NCCCO)cc1 [Example 7, N-(3-Hydroxypropyl)-4-(5-methyl-2-((1-methyl-1H-pyrazol-4-yl)amino)pyrimidin-4-yl)benzamide] | 0.0101 µM
13 | N#CCNC(=O)c1ccc(-c2nc(Nc3cnn(CC(F)F)c3)ncc2F)cc1F [Example 131, N-(cyanomethyl)-4-(2-((1-(2,2-difluoroethyl)-1H-pyrazol-4-yl)amino)-5-fluoropyrimidin-4-yl)-2-fluorobenzamide] | 0.0262 µM
14 | C[C@@H](C#N)NC(=O)c1ccc(-c2ccnc(Nc3cnn(C4CC4)c3)n2)cc1F [Example 142, (S)—N-(1-Cyanoethyl)-4-(2-((1-cyclopropyl-1H-pyrazol-4-yl)amino)pyrimidin-4-yl)-2-fluorobenzamide] | 0.0126 µM
15 | Cc1cnc(Nc2cnn(C)c2)nc1-c1ccc(C(=O)NCCN(C)C)cc1 [Example 105, N-(2-(Dimethylamino)ethyl)-4-(5-methyl-2-((1-methyl-1H-pyrazol-4-yl)amino)pyrimidin-4-yl)benzamide] | 0.0559 µM
16 | Cc1cnc(Nc2cnn(C)c2)nc1-c1ccc(C(=O)NC(C)C#N)cc1 (centres unmarked) [Example 17, N-(1-Cyanoethyl)-4-(5-methyl-2-((1-methyl-1H-pyrazol-4-yl)amino)pyrimidin-4-yl)benzamide] | 0.00515 µM
17 | Cc1cnc(Nc2cnn(C)c2)nc1-c1ccc(C(=O)NCCO)cc1 [Example 8, N-(2-Hydroxyethyl)-4-(5-methyl-2-((1-methyl-1H-pyrazol-4-yl)amino)pyrimidin-4-yl)benzamide] | 0.014 µM
18 | Cc1cnc(Nc2cnn(CC#N)c2)nc1-c1ccc(C(=O)N2CC(C#N)C2)cc1 [Example 30, 1-(4-(2-((1-(Cyanomethyl)-1H-pyrazol-4-yl)amino)-5-methylpyrimidin-4-yl)benzoyl)azetidine-3-carbonitrile] | 0.0115 µM
19 | N#CCNC(=O)c1ccc(-c2nc(Nc3cnn(CC(F)(F)F)c3)ncc2F)cc1F [Example 130, N-(cyanomethyl)-2-fluoro-4-(5-fluoro-2-((1-(2,2,2-trifluoroethyl)-1H-pyrazol-4-yl)amino)pyrimidin-4-yl)benzamide] | 0.0581 µM
20 | Cc1cnc(Nc2cnn(C)c2)nc1-c1ccc(C(=O)NCC(O)CO)cc1 (centres unmarked) [Example 14, N-(2,3-Dihydroxypropyl)-4-(5-methyl-2-((1-methyl-1H-pyrazol-4-yl)amino)pyrimidin-4-yl)benzamide] | 0.0143 µM
21 | Cc1cnc(Nc2cnn(C)c2)nc1-c1ccc(C(=O)N2CC(C#N)C2)cc1 [Example 15, 1-(4-(5-Methyl-2-((1-methyl-1H-pyrazol-4-yl)amino)pyrimidin-4-yl)benzoyl)azetidine-3-carbonitrile] | 0.0086 µM
22 | Cc1cnc(Nc2cnn(C3CCN(C(=O)C4(C)COC4)CC3)c2)nc1-c1ccc(C(=O)NCC#N)cc1 [Example 118, N-(Cyanomethyl)-4-(5-methyl-2-((1-(1-(3-methyloxetane-3-carbonyl)piperidin-4-yl)-1H-pyrazol-4-yl)amino)pyrimidin-4-yl)benzamide] | < 0.00025 µM
23 | Cn1cc(Nc2nccc(-c3ccc(C(=O)NCC#N)cc3F)n2)cn1 [Example 35, N-(Cyanomethyl)-3-fluoro-4-(2-((1-methyl-1H-pyrazol-4-yl)amino)pyrimidin-4-yl)benzamide] | 0.0349 µM

Next, values leading:

Row | IC50 | Structure (SMILES)
24 | 0.0404 µM | N#CC1CN(C(=O)c2ccc(-c3ccnc(Nc4cnn(C5CC5)c4)n3)cc2F)C1 [Example 141, 1-(4-(2-((1-Cyclopropyl-1H-pyrazol-4-yl)amino)pyrimidin-4-yl)-2-fluorobenzoyl)azetidine-3-carbonitrile]
25 | 0.0092 µM | N#CC1CN(C(=O)c2ccc(-c3nc(Nc4cnn(C5CC5)c4)ncc3Cl)cc2F)C1 [Example 136, 1-(4-(5-Chloro-2-((1-cyclopropyl-1H-pyrazol-4-yl)amino)pyrimidin-4-yl)-2-fluorobenzoyl)azetidine-3-carbonitrile]
26 | 0.0028 µM | N#CCNC(=O)c1ccc(-c2nc(Nc3cnn(C4CC4)c3)ncc2Cl)cc1F [Example 135, 4-(5-Chloro-2-((1-cyclopropyl-1H-pyrazol-4-yl)amino)pyrimidin-4-yl)-N-(cyanomethyl)-2-fluorobenzamide]
27 | 0.019 µM | C[C@@H](C#N)NC(=O)c1ccc(-c2nc(Nc3cnn(C4CC4)c3)ncc2F)cc1F [Example 117, (S)—N-(1-cyanoethyl)-4-(2-((1-cyclopropyl-1H-pyrazol-4-yl)amino)-5-fluoropyrimidin-4-yl)-2-fluorobenzamide]
28 | 0.00549 µM | Cc1cnc(Nc2cnn(C3CC3)c2)nc1-c1ccc(C(=O)N2CC(C#N)C2)cc1 [Example 29, 1-(4-(2-((1-Cyclopropyl-1H-pyrazol-4-yl)amino)-5-methylpyrimidin-4-yl)benzoyl)azetidine-3-carbonitrile]
29 | 0.0015 µM | Cc1cnc(Nc2cnn(C3CC3)c2)nc1-c1ccc(C(=O)NCC#N)c(F)c1 [Example 128, N-(cyanomethyl)-4-(2-((1-cyclopropyl-1H-pyrazol-4-yl)amino)-5-methylpyrimidin-4-yl)-2-fluorobenzamide]
30 | 0.022 µM | Cn1cc(Nc2ncc(F)c(-c3ccc(C(=O)NCC#N)c(F)c3)n2)cn1 [Example 36, N-(Cyanomethyl)-2-fluoro-4-(5-fluoro-2-((1-methyl-1H-pyrazol-4-yl)amino)pyrimidin-4-yl)benzamide]
31 | 0.0029 µM | Cc1cnc(Nc2cnn(C3CCN(CC#N)CC3)c2)nc1-c1ccc(C(=O)N2CC(C#N)C2)cc1 [Example 23, 1-(4-(2-((1-(1-(Cyanomethyl)piperidin-4-yl)-1H-pyrazol-4-yl)amino)-5-methylpyrimidin-4-yl)benzoyl)azetidine-3-carbonitrile]
32 | 0.0106 µM | N#CCNC(=O)c1ccc(-c2nc(Nc3cnn(C4CC4)c3)ncc2F)cc1F [Example 116, N-(Cyanomethyl)-4-(2-((1-cyclopropyl-1H-pyrazol-4-yl)amino)-5-fluoropyrimidin-4-yl)-2-fluorobenzamide]
33 | 0.012 µM | Cc1cnc(Nc2cnn(C)c2)nc1-c1ccc(C(=O)N2CC(C#N)C2)c(F)c1 [Example 103, 1-(2-Fluoro-4-(5-methyl-2-((1-methyl-1H-pyrazol-4-yl)amino)pyrimidin-4-yl)benzoyl)azetidine-3-carbonitrile]
34 | 0.0535 µM | N#CC1CN(C(=O)c2ccc(-c3nc(Nc4cnn(C5CC5)c4)ncc3F)cc2F)C1 [Example 127, 1-(4-(2-((1-Cyclopropyl-1H-pyrazol-4-yl)amino)-5-fluoropyrimidin-4-yl)-2-fluorobenzoyl)azetidine-3-carbonitrile]
35 | 0.0026 µM | CC(=O)N1CCC(n2cc(Nc3ncc(C)c(-c4ccc(C(=O)N5CC(C#N)C5)cc4)n3)cn2)CC1 [Example 102, 1-(4-(2-((1-(1-Acetylpiperidin-4-yl)-1H-pyrazol-4-yl)amino)-5-methylpyrimidin-4-yl)benzoyl)azetidine-3-carbonitrile]
